Measurements taken from ChEMBL document CHEMBL3352695, “Synthesis and biological evaluation of novel isoxazoles and triazoles linked 6-hydroxycoumarin as potent cytotoxic agents” (Bioorg Med Chem Lett, 2014).

Experiments:
Assay type in all cases: functional, cell-based
A549 = assay: Cytotoxicity against human A549 cells after 48 hrs by MTT assay; conditions: A549, 48 h
[1] = Cytotoxicity against human PC3 cells after 48 hrs by MTT assay; conditions: PC-3, 48 h
[2] = Cytotoxicity against human HL60 cells after 48 hrs by MTT assay; conditions: HL-60, 48 h
[3] = Cytotoxicity against human HCT116 cells after 48 hrs by MTT assay; conditions: HCT-116, 48 h
COLO 205 = assay: Cytotoxicity against human COLO205 cells after 48 hrs by MTT assay; conditions: COLO 205, 48 h

| Compound | IC50 (A549) | IC50 [1] | IC50 [2] | IC50 [3] | IC50 (COLO 205) |
| --- | --- | --- | --- | --- | --- |
| C#CCOc1ccc2oc(=O)ccc2c1 | 24 µM |  |  |  |  |
| O=c1ccc2cc(OCc3cc(-c4ccccc4Cl)no3)ccc2o1 |  | 18.2 µM |  |  |  |
| O=c1ccc2cc(OCc3cc(-c4ccccc4)no3)ccc2o1 |  | 53.2 µM | 43.3 µM |  |  |
| O=c1ccc2cc(OCc3cc(-c4ccc5ccccc5c4)no3)ccc2o1 |  |  | 55.7 µM | 55.9 µM | 48.7 µM |
| O=c1ccc2cc(OCc3cc(-c4cccc5ccccc45)no3)ccc2o1 |  |  | 41.6 µM | 51.5 µM | 47.2 µM |
| O=c1ccc2cc(OCc3cc(-c4cccc(Cl)c4)no3)ccc2o1 |  |  | 50.6 µM | 42.1 µM | 32.5 µM |
| O=c1ccc2cc(OCc3cc(-c4ccc(Cl)cc4)no3)ccc2o1 |  |  | 44.6 µM | 55.8 µM | 44.5 µM |
| O=c1ccc2cc(OCc3cc(-c4ccccc4[N+](=O)[O-])no3)ccc2o1 |  | 8.2 µM |  |  |  |
| O=c1ccc2cc(OCc3cc(-c4cccc([N+](=O)[O-])c4)no3)ccc2o1 | 36.2 µM |  | 44.4 µM | 48.2 µM | 48.3 µM |
| O=c1ccc2cc(OCc3cc(-c4ccc([N+](=O)[O-])cc4)no3)ccc2o1 |  |  | 55.8 µM | 42.2 µM | 47.8 µM |
| N#Cc1ccccc1-c1cc(COc2ccc3oc(=O)ccc3c2)on1 | 55.8 µM | 13.6 µM |  |  |  |
| COc1ccccc1-c1cc(COc2ccc3oc(=O)ccc3c2)on1 |  | 22.4 µM |  |  |  |
| O=c1ccc2cc(OCc3cn(-c4ccccc4)nn3)ccc2o1 |  |  | 41.6 µM | 51.5 µM | 48.8 µM |
| COc1ccc(-n2cc(COc3ccc4oc(=O)ccc4c3)nn2)cc1 | 46.8 µM |  | 46.4 µM | 37.8 µM | 32.8 µM |
| N#CCc1ccc(-n2cc(COc3ccc4oc(=O)ccc4c3)nn2)cc1 | 29.2 µM |  |  |  |  |
| O=c1ccc2cc(OCc3cn(-c4cccc(CO)c4)nn3)ccc2o1 | 35.1 µM |  |  |  |  |
| CC(=O)Nc1ccc(-n2cc(COc3ccc4oc(=O)ccc4c3)nn2)cc1 |  |  | 40.4 µM |  |  |
| O=c1ccc2cc(OCc3cn(-c4ccccc4Cl)nn3)ccc2o1 | 17.1 µM |  |  |  |  |
| O=c1ccc2cc(OCc3cn(-c4cccc([N+](=O)[O-])c4)nn3)ccc2o1 |  | 49.3 µM | 20.5 µM | 26.9 µM | 36.6 µM |
| O=c1ccc2cc(OCc3cn(-c4ccc(Cl)c(Cl)c4)nn3)ccc2o1 |  |  | 47.8 µM | 57.3 µM |  |
| O=c1ccc2cc(OCc3cn(-c4ccccc4[N+](=O)[O-])nn3)ccc2o1 | 10.2 µM |  | 44.6 µM | 55.8 µM |  |
| O=c1ccc2cc(OCc3cn(-c4ccc([N+](=O)[O-])cc4)nn3)ccc2o1 | 33.6 µM |  | 46 µM | 44.3 µM | 48.7 µM |
| N#Cc1ccccc1-n1cc(COc2ccc3oc(=O)ccc3c2)nn1 | 12.6 µM |  | 52.1 µM |  |  |
| COc1ccccc1-n1cc(COc2ccc3oc(=O)ccc3c2)nn1 | 18.7 µM |  | 55.2 µM |  |  |
| O=c1ccc2cc(O)ccc2o1 [6-HYDROXYCOUMARIN] |  |  | 35 µM | 46.2 µM | 38.7 µM |
| Cn1c(=O)n(-c2ccc(C(C)(C)C#N)cc2)c2c3cc(-c4cnc5ccccc5c4)ccc3ncc21 [DACTOLISIB] | 6.5 µM | 12.3 µM | 12.4 µM | 0.044 µM | 0.085 µM |
